Test [1] relates to Spodoptera exigua. Briefly: Insecticidal activity against Spodoptera exigua assessed as increase of larval mortality at 5 umol/g in artificial diet after 9 days relative to control. The format is functional.
Test [2] relates to Spodoptera exigua. As to the kind of experiment: Insecticidal activity against Spodoptera exigua assessed as reduction of weight at 5 umol/g in artificial diet after 9 days relative to control. The format is functional, organism-based.
Test [3] deals with Spodoptera exigua. As to the kind of experiment: Insecticidal activity against Spodoptera exigua. The class given is functional.

These results are taken from ChEMBL document CHEMBL1158006, “Alkylfurans: effects of alkyl side-chain length on insecticidal activity” (1999).

Activity calls are given as the source filed them. The calls are words filed in the database; no cut-off is given here.

`CCCCCCCCCCCCCCc1ccco1`: in the test on Spodoptera exigua [1], the Activity was less than 50%. Moreover, the result with Spodoptera exigua [2] was Active.
`CCCCCCCCCCCCCCCCCc1ccco1` [2-(HEPTADECYL)FURAN]: in the test with Spodoptera exigua [1], the Activity is on record as 95%. In the test on Spodoptera exigua [3], the LC50 turned out to be 1206 µg/g.
The like results for `CCCCCCCCCCCCCCCc1ccco1` were, in that order, 93% and 1031 µg/g.
On to `CCCCCCCCCCCCCCCCCCc1ccco1`, for which the Activity in the test on Spodoptera exigua [1] is on record as 68%.
